Converted amounts (≈) assume the structure as drawn. Read-outs that look alike come from different tables or passages of the source.
Experiments:
[1] = target: PDE-1; assay: Phosphodiesterase inhibition PDE-1; format: biochemical
Protocol: (§1) Phosphodiesterase inhibition was determined by methods known to one of skill in the art.

[2] = target: PDE-6; assay: Phosphodiesterase inhibition PDE-6; format: biochemical
Protocol: as §1

[3] = Protein binding; format: in vitro ADME; details: human, human serum components
Protocol: In general, protein binding is assessed by measuring the capacity of molecules of the invention to bind to one or more human serum components or mimics thereof. In one embodiment, suitable functional residues may be identified by screening of surfaces comprising such residues for their ability to resist adsorption of serum components, including, but not limited to serum proteins, and preferably human serum proteins. Candidate residues can be screened directly by attaching them to a solid support and testing the support for protein resistance. Alternatively, candidate residues are incorporated into, or linked to molecules of pharmaceutical interest. Such compounds may be synthesized on a solid support, or bound to a solid support after synthesis. In a non-limiting example of a direct binding assay, immobilized candidate functional residues or molecules incorporating such residues are tested for their ability to bind serum components. The serum components can be labeled with a signaling moiety for detection, or a labeled secondary reagent that binds to such serum components can be used.

[4] = Non-specific binding; format: in vitro ADME
[5] = PAMPA permeability; format: in vitro ADME; details: for Papp: PAMPA
[6] = target: PDE-3; assay: Phosphodiesterase inhibition PDE-3; format: biochemical
Protocol: as §1

[7] = Cytotoxicity GC50; format: cell-based
[8] = Solubility; format: physicochemical
[9] = Caco-2 permeability; format: in vitro ADME; details: human; for Papp A→B: AtoB; for Papp B→A: BtoA
Description: Several model systems are available, employing monolayers of various cell types, for evaluation of active transport of pharmaceutically active substances. For example, monolayers of Caco-2 intestinal epithelial cells can be used to evaluate active transport of substances between the intestine and the bloodstream. When plated on a surface which allows the flow of material from apical to basolateral and vice versa, such cells form a biological membrane which can be used to simulate physiological absorption and bio-availability. In another example, mouse brain capillary endothelial cell (MBEC) lines have been established to evaluate active transport in and out of the central nervous system. Another example of such cells is HT29 human colon carcinoma cells. Further, monolayers expressing particular transporter proteins can be established using transfected cells. For example, Sasaki et al (2002) J. Biol. Chem. 8:6497 used a double-transfected Madin-Darby canine kidney cell monolayer to study transport of organic anions.

[10] = target: T1, PDE5 (Homo sapiens, UniProt O76074); assay: Phosphodiesterase inhibition IC50 (Table 1); format: biochemical; details: PDE5 inhibitor scaffold Compound B
Protocol: as §1

[11] = target: T1, PDE5; assay: Phosphodiesterase inhibition PDE-5 human; format: biochemical
Protocol: as §1

[12] = Cytotoxicity LC50; format: cell-based; details: Chronic; read-out: Cytotox LC50 Chronic
[13] = pH 2.7, aqueous buffer, pH 2.7, read-out: Solubility pH 2.7
[14] = pH 7.4, aqueous buffer, pH 7.4, read-out: Solubility pH 7.4

Compound	IC50 [1]	IC50 [2]	fraction unbound [3]	Non-Spec Binding [4]	Papp ([5]; Hex, read-out: PAMPA Hex)	Papp ([5]; Lec, read-out: PAMPA Lec)	IC50 [6]	Cytotox GC50 [7]	solubility [8, 13]	solubility [8, 14]	Papp A→B [9]	Papp B→A [9]	IC50 [10]	IC50 [11]	CC50 [12]	PAMPA Hex ([5]; Hex)	Solubility pH 2.7 ([8]; pH 2.7)	Solubility pH 7.4 ([8]; pH 7.4)
CCCc1nc(C)c2c(=O)[nH]c(-c3cc(S(=O)(=O)N(C)CC(=O)N(C)C)ccc3OCC)nn12 [Compound 1]	0.025 µM	0.0035 µM	0.086	11.07%	5.49 ×10⁻⁶ cm/s	0.128 ×10⁻⁶ cm/s	0.986 µM	76.7 µM	> 100 µg/mL	96.1 µg/mL (≈ 196 µM)	17.5 ×10⁻⁶ cm/s	48.9 ×10⁻⁶ cm/s	–	–	–	–	–	–
CCCc1nc(C)c2c(=O)[nH]c(-c3cc(S(=O)(=O)N(C)[C@H](C)C(=O)N(C)C)ccc3OCC)nn12 [Compound 2]	–	–	0.032	20.7%	18.2 ×10⁻⁶ cm/s	–	–	94.6 µM	> 100 µg/mL	> 100 µg/mL	33.3 ×10⁻⁶ cm/s	61.3 ×10⁻⁶ cm/s	–	–	–	–	–	–
CCCc1nc(C)c2c(=O)[nH]c(-c3cc(S(=O)(=O)N(C)CC(=O)N(C)CC(=O)N(C)C)ccc3OCC)nn12 [Compound 4]	–	–	0.18	7%	0.47 ×10⁻⁶ cm/s	0.056 ×10⁻⁶ cm/s	–	–	112 µg/mL (≈ 199 µM)	109 µg/mL (≈ 194 µM)	2.97 ×10⁻⁶ cm/s	25.9 ×10⁻⁶ cm/s	–	–	–	–	–	–
CCCc1nc(C)c2c(=O)[nH]c(-c3cc(S(=O)(=O)N4CCCC4C(=O)N(C)C)ccc3OCC)nn12 (stereo not shown) [Compound 5]	–	–	–	–	13.2 ×10⁻⁶ cm/s	–	–	–	100 µg/mL (≈ 194 µM)	93 µg/mL (≈ 180 µM)	19.4 ×10⁻⁶ cm/s	60.2 ×10⁻⁶ cm/s	–	–	–	–	–	–
CCCc1nc(C)c2c(=O)[nH]c(-c3cc(S(=O)(=O)N(C)CC(=O)N4CCOCC4)ccc3OCC)nn12 [Compound 6]	–	–	0.084	7.3%	0.78 ×10⁻⁶ cm/s	–	–	–	> 100 µg/mL	> 100 µg/mL	11.2 ×10⁻⁶ cm/s	55.1 ×10⁻⁶ cm/s	–	–	–	–	–	–
CCCc1nc(C)c2c(=O)[nH]c(-c3cc(S(=O)(=O)N(C)CC(=O)N4CCN(C)CC4)ccc3OCC)nn12 [Compound 7]	–	–	0.155	2.6%	0.18 ×10⁻⁶ cm/s	–	–	–	> 100 µg/mL	> 100 µg/mL	4.35 ×10⁻⁶ cm/s	35.6 ×10⁻⁶ cm/s	–	–	–	–	–	–
CCCc1nc(C)c2c(=O)[nH]c(-c3cc(S(=O)(=O)N(C)CC(=O)N(CC)CC)ccc3OCC)nn12 [Compound 8]	–	–	0.024	19%	21.8 ×10⁻⁶ cm/s	–	–	–	> 100 µg/mL	> 100 µg/mL	42 ×10⁻⁶ cm/s	77.4 ×10⁻⁶ cm/s	–	–	–	–	–	–
CCCc1nc(C)c2c(=O)[nH]c(-c3cc(S(=O)(=O)N(C)CC(=O)N(C)CCN(C)C)ccc3OCC)nn12 [Compound 9]	–	–	0.246	9.8%	0.03 ×10⁻⁶ cm/s	–	–	–	> 100 µg/mL	> 100 µg/mL	2.33 ×10⁻⁶ cm/s	11.3 ×10⁻⁶ cm/s	–	–	–	–	–	–
CCCc1nc(C)c2c(=O)[nH]c(-c3cc(S(=O)(=O)N(CC)CC(=O)N(CC)CC)ccc3OCC)nn12 [Compound 10]	–	–	–	–	67 ×10⁻⁶ cm/s	–	–	–	77.9 µg/mL (≈ 146 µM)	78.5 µg/mL (≈ 147 µM)	–	–	–	–	–	–	–	–
CCCc1nc(C)c2c(=O)[nH]c(-c3cc(S(=O)(=O)N(C)CC(=O)N(C)CCOC)ccc3OCC)nn12 [Compound 11]	–	–	0.042	0%	1.45 ×10⁻⁶ cm/s	–	–	–	66.7 µg/mL (≈ 125 µM)	70.9 µg/mL (≈ 133 µM)	11.4 ×10⁻⁶ cm/s	63.3 ×10⁻⁶ cm/s	0.00015 µM	0.00015 µM	–	–	–	–
CCCc1nc(C)c2c(=O)[nH]c(-c3cc(S(=O)(=O)N(C)[C@@H](C)C(=O)N(C)C)ccc3OCC)nn12 [Compound 12]	–	–	0.058	30.7%	13.9 ×10⁻⁶ cm/s	–	–	99.3 µM	96 µg/mL (≈ 190 µM)	100 µg/mL (≈ 198 µM)	33.4 ×10⁻⁶ cm/s	50.4 ×10⁻⁶ cm/s	–	–	–	–	–	–
CCCc1nc(C)c2c(=O)[nH]c(-c3cc(S(=O)(=O)N(C)[C@@H](C)C(=O)NC)ccc3OCC)nn12 [Compound 13]	–	–	–	–	0.42 ×10⁻⁶ cm/s	–	–	94.0 µM	69.4 µg/mL (≈ 141 µM)	74.6 µg/mL (≈ 152 µM)	–	–	–	–	100 µM	–	–	–
CCCc1nc(C)c2c(=O)[nH]c(-c3cc(S(=O)(=O)N(C)[C@H](C)C(=O)NC)ccc3OCC)nn12 [Compound 14]	–	–	–	–	0.47 ×10⁻⁶ cm/s	–	–	88.0 µM	62.6 µg/mL (≈ 128 µM)	64 µg/mL (≈ 130 µM)	–	–	–	–	100 µM	–	–	–
CCCc1nc(C)c2c(=O)[nH]c(-c3cc(S(=O)(=O)N(C)C(C)(C)C(=O)NC)ccc3OCC)nn12 [Compound 15]	–	–	–	–	0.25 ×10⁻⁶ cm/s	–	–	95.0 µM	–	–	6.8 ×10⁻⁶ cm/s	34.9 ×10⁻⁶ cm/s	–	–	100 µM	–	–	–
CCCc1nc(C)c2c(=O)[nH]c(-c3cc(S(=O)(=O)N(C)C4(C(=O)N(C)C)CC4)ccc3OCC)nn12 [Compound 16]	–	–	–	–	3.41 ×10⁻⁶ cm/s	–	–	100 µM	74.7 µg/mL (≈ 145 µM)	82.5 µg/mL (≈ 160 µM)	–	–	–	–	100 µM	–	–	–
CCCc1nc(C)c2c(=O)[nH]c(-c3cc(S(=O)(=O)NC(C)C(=O)N(C)C)ccc3OCC)nn12 (stereo not shown) [Compound 17]	–	–	–	–	0.26 ×10⁻⁶ cm/s	–	–	100 µM	70 µg/mL (≈ 143 µM)	78.4 µg/mL (≈ 160 µM)	–	–	0.00066 µM	0.00066 µM	100 µM	–	–	–
CCCc1nc(C)c2c(=O)[nH]c(-c3cc(S(=O)(=O)NC(C)C(=O)N(C)C)ccc3OCC)nn12 (stereo not shown) [Compound 18]	–	–	–	–	–	–	–	100 µM	–	–	–	–	0.00036 µM	0.00036 µM	100 µM	0.18 10^−6 cm/s	70.3 ug/mL	75.75 ug/mL
CCCc1nc(C)c2c(=O)[nH]c(-c3cc(S(=O)(=O)NC(C)(C)C(=O)N(C)C)ccc3OCC)nn12 [Compound 19]	–	–	–	–	0.17 ×10⁻⁶ cm/s	–	–	100 µM	> 100 µg/mL	7.1 µg/mL (≈ 14.1 µM)	2.43 ×10⁻⁶ cm/s	33 ×10⁻⁶ cm/s	–	–	100 µM	–	–	–
CCCc1nc(C)c2c(=O)[nH]c(-c3cc(S(=O)(=O)N(C)CC(=O)NC)ccc3OCC)nn12 [Compound 21]	–	–	–	–	0.24 ×10⁻⁶ cm/s	–	–	–	> 100 µg/mL	> 100 µg/mL	5.15 ×10⁻⁶ cm/s	31.4 ×10⁻⁶ cm/s	–	–	–	–	–	–
